Activity calls are given as the source filed them. The calls are words filed in the database; no cut-off is given here.
How the values were obtained:
A549 [1] = assay: (§1) Photosensitizing ability of the compound in human A549 cells assessed as increase in intracellular ROS generation by measuring increase in fluorescence intensity measured upon light irradiation under normoxia conditions by DCFH-DA staining based fluorescence analysis relative to FLI in cells without irradiation; assay type: functional
[2] = Photosensitizing ability of the compound assessed as superoxide radical production upon irradiation by DHE probe based assay relative to KNKQ; assay type: functional
[3] = Photosensitizing ability of the compound in methanol assessed as singlet oxygen production by measuring quantum yield measured upon irradiation by DPBF based assay; assay type: functional
[4] = Phototoxicity against human A549 cells assessed as inhibition of cell growth incubated for 24 hrs measured under normoxia conditions and after two-photon excitation upon irradiation with light at 808 nm, 200 mW/cm2 for 10 mins by MTT assay; assay type: functional, cell-based; conditions: A549, light or radiation study
A549 [5] = assay: Induction of apoptosis in human A549 cells assessed as viable cells measured upon light irradiation by AnnexinV-FITC/PI staining based flow cytometric analysis (reference value: 98.4%); assay type: functional
[6] = Selectivity index, ratio of IC50 for cytotoxicity against human HFL1 cells measured under normoxia conditions to IC50 for cytotoxicity against human A549 cells measured under normoxia conditions; assay type: toxicity, cell-based; conditions: HFL1 cells versus A549 cells, read-out: Ratio IC50
A549 [7] = assay: Induction of mitochondrial damage in human A549 cells assessed as increase in green fluorescence intensity measured upon light irradiation by JC-1 staining based fluorescence analysis; assay type: functional, cell-based
A549 [8] = assay: Cytotoxicity against human A549 cells assessed as inhibition of cell growth incubated for 24 hrs measured under hypoxia conditions by MTT assay; assay type: functional, cell-based; conditions: A549, 24 h
A549 [9] = assay: Induction of mitochondrial damage in human A549 cells assessed as decrease in red fluorescence intensity measured upon light irradiation by JC-1 staining based fluorescence analysis; assay type: functional, cell-based
[10] = Selectivity index, ratio of IC50 for cytotoxicity against human HFL1 cells measured under normoxia conditions to IC50 for phototoxicity against human A549 cells measured under normoxia conditions and after one-photon excitation upon irradiation with light at 520 nm, 200 mW/cm2 for 10 mins; assay type: toxicity, cell-based; conditions: HFL1 cells versus A549 cells, read-out: Ratio IC50
A549 [11] = assay: Induction of apoptosis in human A549 cells assessed as early apoptotic cells measured upon light irradiation by AnnexinV-FITC/PI staining based flow cytometric analysis (reference value: 0.39%); assay type: functional
[12] = Phototherapeutic index, ratio of IC50 for cytotoxicity against human A549 cells measured under hypoxia conditions to IC50 for phototoxicity against human A549 cells measured under hypoxia conditions and after two-photon excitation upon irradiation with light at 808 nm, 200 mW/cm2 for 10 mins; assay type: functional
A549 [13] = assay: Induction of ferroptosis in human A549 cells assessed as increase in lipid peroxidation by measuring reduction in red fluorescence of the reduced state measured upon irradiation by BODIPY 581/591C11 probe based confocal imaging analysis; assay type: functional, cell-based
A549 [14] = assay: Induction of ROS generation in human A549 cells assessed as intracellular singlet oxygen level measured under normoxia conditions by SOSG probe based fluorescence analysis; assay type: functional, cell-based
[15] = Phototoxicity against human A549 cells assessed as inhibition of cell growth at 1.56 to 400 nM incubated for 24 hrs measured under normoxia conditions and after one-photon excitation upon irradiation with light at 520 nm, 200 mW/cm2 for 10 mins by MTT assay relative to control; assay type: functional; conditions: dose 1.56-400 nM
[16] = Photosensitizing ability of the compound assessed as superoxide radical production measured upon irradiation by DHE probe based assay; assay type: functional
A549 [17] = assay: Induction of ferroptosis in human A549 cells assessed as increase in lipid peroxidation by measuring decrease in GPX4 protein expression measured upon irradiation by western blot analysis relative to control; assay type: functional
A549 [18] = assay: Induction of ferroptosis in human A549 cells assessed as increase in lipid peroxidation by measuring decrease in GSH level measured upon irradiation relative to control; assay type: functional
A549 [19] = assay: Induction of autophagy in human A549 cells assessed as large circular vesicles engulfing small particles measured upon light irradiation by transmission electron microscopy; assay type: functional, cell-based
A549 [20] = assay: as §1, with “singlet oxygen” for “ROS”, “SOSG probe” for “DCFH-DA staining”; assay type: functional
[21] = Photosensitizing ability of the compound assessed as hydroxyl radical production measured upon irradiation by electron spin resonance analysis; assay type: functional
A549 [22] = assay: Photosensitizing ability of the compound in human A549 cells assessed as increase in intracellular superoxide generation by measuring increase in fluorescence intensity measured upon light irradiation under hypoxia conditions by DHE probe based fluorescence analysis; assay type: functional, cell-based
[23] = Drug uptake in human A549 cells assessed as localization in lysosomes by measuring appearance of yellow fluorescence by Hoechst33342/LysoTracker dye based confocal laser scanning microscopic analysis; assay type: ADME, cell-based
A549 [24] = assay: Induction of ferroptosis in human A549 cells assessed as increase in lipid peroxidation by measuring increase in green-to-red fluorescence ratio measured upon irradiation by BODIPY 581/591C11 probe based confocal imaging analysis relative to control; assay type: functional
HT-29 = assay: Cytotoxicity against human HT-29 cells assessed as inhibition of cell growth incubated for 24 hrs measured under normoxia conditions by MTT assay; assay type: functional, cell-based; conditions: HT-29, 24 h
A549 [25] = assay: In vivo photodynamic therapy based antitumor activity against human A549 cells xenografted in mouse assessed as tumor growth inhibition administered intratumorally followed by exposure to light on day 0 and 7 and measured on day 15; assay type: functional; conditions: route it(Intratumoral); time 15 day
[26] = Photosensitizing ability of the compound in methanol assessed as singlet oxygen production by measuring quantum yield upon irradiation by DPBF based assay relative to KNKQ; assay type: functional
A549 [27] = assay: Induction of apoptosis in human A549 cells assessed as viable cells measured under dark conditions by AnnexinV-FITC/PI staining based flow cytometric analysis (reference value: 99.7%); assay type: functional
[28] = Drug uptake in human A549 cells assessed as localization in mitochondria by measuring appearance of yellow fluorescence by Hoechst33342/MitoTracker dye based confocal laser scanning microscopic analysis; assay type: ADME
A549 [29] = assay: Induction of apoptosis in human A549 cells measured upon light irradiation by AnnexinV-FITC/PI staining based flow cytometric analysis relative to RuB; assay type: functional
[30] = Toxicity against mouse xenografted with human A549 cells assessed as changes in biochemical indicators administered intratumorally on day 0 and 7 and measured on day 15; conditions: in vivo, other, 360 h, route it(Intratumoral), time 15 day
A549 [31] = assay: Induction of autophagy in human A549 cells assessed as increase in active membrane bound form, […] expression measured upon light irradiation by western blot analysis relative to control; assay type: functional
[32] = Phototherapeutic index, ratio of IC50 for cytotoxicity against human A549 cells measured under hypoxia conditions to IC50 for phototoxicity against human A549 cells measured under hypoxia conditions and after one-photon excitation upon irradiation with light at 520 nm, 200 mW/cm2 for 10 mins; assay type: functional
A549 [33] = assay: Cytotoxicity against human A549 cells assessed as inhibition of cell growth incubated for 24 hrs measured under normoxia conditions by MTT assay; assay type: functional, cell-based; conditions: A549, 24 h
4T1 = assay: Phototherapeutic index, ratio of IC50 for cytotoxicity against mouse 4T1 cells measured under normoxia conditions to IC50 for phototoxicity against mouse 4T1 cells measured under normoxia conditions and after one-photon excitation upon irradiation with light at 520 nm, 200 mW/cm2 for 10 mins; assay type: functional

Drug uptake [23]: Active
Drug uptake [28]: Active
Structure (SMILES): CCn1c2ccc(/C=C/c3cc[n+](C)c4ccccc34)cc2c2cc(N(c3ccccc3)c3ccccc3)ccc21.[I-]
fold change (FC) (A549 [1]): 4
fold change (FC) [2]: 8
Activity [3]: 0.38
IC50 [4]: 130 nM
Activity (A549 [5]): 7.29%
selectivity ratio [6]: 6
Activity (A549 [7]): Active
IC50 (A549 [8]): 1970 nM
Activity (A549 [9]): Active
selectivity ratio at 10 min [10]: 330
Activity (A549 [11]): 2.36%
Ratio IC50 [12]: 10
Activity (A549 [13]): Active
Activity (A549 [14]): inactive
inhibition (INH) [15]: 24.4%
Activity [16]: Active
fold change (FC) (A549 [17]): 3.3
fold change (FC) (A549 [18]): 100
Activity (A549 [19]): Active
fold change (FC) (A549 [20]): 4
Activity [21]: Active
Activity (A549 [22]): Active
fold change (FC) (A549 [24]): 24
IC50 (HT-29): 1480 nM
TGI (A549 [25]): 90.7%
fold change (FC) [26]: 3
Activity (A549 [27]): 50.4%
fold change (FC) (A549 [29]): 14
Activity [30]: Non-toxic
fold change (FC) (A549 [31]): 2
Ratio IC50 [32]: 46
IC50 (A549 [33]): 1470 nM
Ratio IC50 (4T1): 21
